Results reported in PubChem BioAssay (NCI).
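Abbreviation: GI50, concentration required for 50% inhibition of growth. TGI: total growth inhibition.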

How the values were obtained:
Test in all cases: growth of human tumour cells (NCI), 384-well format
786-0 renal = system: 786-0 renal
A498 renal = system: A498 renal
A549 NSCLC = system: A549 NSCLC
ACHN renal = system: ACHN renal
BT-549 breast = system: BT-549 breast
CAKI-1 renal = system: CAKI-1 renal
CCRF-CEM leukemia = system: CCRF-CEM leukemia
COLO 205 colon = system: COLO 205 colon
DU-145 prostate = system: DU-145 prostate
EKVX NSCLC = system: EKVX NSCLC
HCC-2998 colon = system: HCC-2998 colon
HCT-116 colon = system: HCT-116 colon
HCT-15 colon = system: HCT-15 colon
HL-60(TB) leukemia = system: HL-60(TB) leukemia
HOP-62 NSCLC = system: HOP-62 NSCLC
HOP-92 NSCLC = system: HOP-92 NSCLC
HS 578T breast = system: HS 578T breast
HT29 colon = system: HT29 colon
IGROV1 ovarian = system: IGROV1 ovarian
K-562 leukemia = system: K-562 leukemia
KM12 colon = system: KM12 colon
LOX IMVI melanoma = system: LOX IMVI melanoma
M14 melanoma = system: M14 melanoma
MALME-3M melanoma = system: MALME-3M melanoma
MCF7 breast = system: MCF7 breast
MDA-MB-435 melanoma = system: MDA-MB-435 melanoma
MDA-MB-468 breast = system: MDA-MB-468 breast
MOLT-4 leukemia = system: MOLT-4 leukemia
NCI-H226 lung = system: NCI-H226 lung
NCI-H23 lung = system: NCI-H23 lung
NCI-H322M lung = system: NCI-H322M lung
NCI-H460 NSCLC = system: NCI-H460 NSCLC
NCI-H522 lung = system: NCI-H522 lung
NCI/ADR-RES ovarian = system: NCI/ADR-RES ovarian
OVCAR-3 ovarian = system: OVCAR-3 ovarian
OVCAR-4 ovarian = system: OVCAR-4 ovarian
OVCAR-8 ovarian = system: OVCAR-8 ovarian
PC-3 prostate = system: PC-3 prostate
RPMI-8226 leukemia = system: RPMI-8226 leukemia
RXF 393 renal = system: RXF 393 renal
SF-268 CNS = system: SF-268 CNS
SF-295 CNS = system: SF-295 CNS
SF-539 CNS = system: SF-539 CNS
SK-MEL-2 melanoma = system: SK-MEL-2 melanoma
SK-MEL-28 melanoma = system: SK-MEL-28 melanoma
SK-MEL-5 melanoma = system: SK-MEL-5 melanoma
SK-OV-3 ovarian = system: SK-OV-3 ovarian
SN12C renal = system: SN12C renal
SNB-19 CNS = system: SNB-19 CNS
SNB-75 CNS = system: SNB-75 CNS
SW-620 colon = system: SW-620 colon
TK-10 renal = system: TK-10 renal
U251 glioblastoma = system: U251 glioblastoma
UACC-257 melanoma = system: UACC-257 melanoma
UACC-62 melanoma = system: UACC-62 melanoma

For `Cc1ccc(S(=O)(=O)Oc2ccc3sc4c(CO)ccc(NCCN(C)C)c4c(=O)c3c2)cc1`, the GI50 ([…]-0 renal) was 1.85 µM, the TGI (786-0 renal) was 3.27 µM and the GI50 (A498 renal) was 1.98 µM. For the same compound, the TGI (A498 renal) was 3.41 µM, the GI50 (A549 NSCLC) was 1.84 µM and the TGI (A549 NSCLC) was 3.28 µM. The GI50 (ACHN renal) was 1.89 µM, the TGI (ACHN renal) was 3.33 µM and the GI50 (BT-549 breast) was 1.89 µM. It also gave a TGI (BT-549 breast) of 3.31 µM, a GI50 (CAKI-1 renal) of 1.9 µM and a TGI (CAKI-1 renal) of 3.34 µM. It also gave a GI50 (CCRF-CEM leukemia) of 1.62 µM, a TGI (CCRF-CEM leukemia) of 2.99 µM and a GI50 (COLO 205 colon) of 2.14 µM. For the same compound, the TGI (COLO 205 colon) was 3.6 µM, the GI50 (DU-145 prostate) was 2.09 µM and the TGI (DU-145 prostate) was 3.54 µM. It also gave a GI50 (EKVX NSCLC) of 1.88 µM, a TGI (EKVX NSCLC) of 3.3 µM and a GI50 (HCC-2998 colon) of 1.94 µM. The TGI (HCC-2998 colon) was 3.36 µM, the GI50 (HCT-116 colon) was 2.14 µM and the TGI (HCT-116 colon) was 3.62 µM. For the same compound, the GI50 (HCT-15 colon) was 2.07 µM, the TGI (HCT-15 colon) was 3.53 µM and the GI50 (HL-60(TB) leukemia) was 1.59 µM. The TGI (HL-60(TB) leukemia) was 2.95 µM, the GI50 (HOP-62 NSCLC) was 2.08 µM and the TGI (HOP-62 NSCLC) was 3.52 µM. It also gave a GI50 (HOP-92 NSCLC) of 2.12 µM, a TGI (HOP-92 NSCLC) of 3.57 µM and a GI50 (HS 578T breast) of 2.01 µM. It also gave a TGI (HS 578T breast) of 3.45 µM, a GI50 (HT29 colon) of 1.8 µM and a TGI (HT29 colon) of 3.21 µM. It also gave a GI50 (IGROV1 ovarian) of 1.79 µM, a TGI (IGROV1 ovarian) of 3.18 µM and a GI50 (K-562 leukemia) of 1.91 µM. It also gave a TGI (K-562 leukemia) of 3.33 µM, a GI50 (KM12 colon) of 1.87 µM and a TGI (KM12 colon) of 3.3 µM. It also gave a GI50 (LOX IMVI melanoma) of 1.71 µM, a TGI (LOX IMVI melanoma) of 3.11 µM and a GI50 (M14 melanoma) of 2.16 µM. For the same compound, the TGI (M14 melanoma) was 3.61 µM, the GI50 (MALME-3M melanoma) was 2.15 µM and the TGI (MALME-3M melanoma) was 3.61 µM. The GI50 (MCF7 breast) was 1.72 µM, the TGI (MCF7 breast) was 3.11 µM and the GI50 (MDA-MB-435 melanoma) was 2.13 µM. For the same compound, the TGI (MDA-MB-435 melanoma) was 3.57 µM, the GI50 (MDA-MB-468 breast) was 3.82 µM and the TGI (MDA-MB-468 breast) was 5.27 µM. The GI50 (MOLT-4 leukemia) was 1.79 µM, the TGI (MOLT-4 leukemia) was 3.18 µM and the GI50 (NCI-H226 lung) was 1.47 µM. For the same compound, the TGI (NCI-H226 lung) was 2.8 µM, the GI50 (NCI-H23 lung) was 2.03 µM and the TGI (NCI-H23 lung) was 3.46 µM. The GI50 (NCI-H322M lung) was 2.12 µM, the TGI (NCI-H322M lung) was 3.57 µM and the GI50 (NCI-H460 NSCLC) was 1.9 µM. It also gave a TGI (NCI-H460 NSCLC) of 3.34 µM, a GI50 (NCI-H522 lung) of 2.2 µM and a TGI (NCI-H522 lung) of 3.66 µM. The GI50 (NCI/ADR-RES ovarian) was 2.06 µM, the TGI (NCI/ADR-RES ovarian) was 3.5 µM and the GI50 (OVCAR-3 ovarian) was 1.97 µM. It also gave a TGI (OVCAR-3 ovarian) of 3.39 µM, a GI50 (OVCAR-4 ovarian) of 2.24 µM and a TGI (OVCAR-4 ovarian) of 3.7 µM. It also gave a GI50 (OVCAR-8 ovarian) of 1.63 µM, a TGI (OVCAR-8 ovarian) of 3.02 µM and a GI50 (PC-3 prostate) of 2.01 µM. The TGI (PC-3 prostate) was 3.45 µM, the GI50 (RPMI-8226 leukemia) was 1.92 µM and the TGI (RPMI-8226 leukemia) was 3.33 µM. For the same compound, the GI50 (RXF 393 renal) was 1.99 µM, the TGI (RXF 393 renal) was 3.42 µM and the GI50 (SF-268 CNS) was 2.2 µM. It also gave a TGI (SF-268 CNS) of 3.66 µM, a GI50 (SF-295 CNS) of 1.96 µM and a TGI (SF-295 CNS) of 3.38 µM. It also gave a GI50 (SF-539 CNS) of 2.08 µM, a TGI (SF-539 CNS) of 3.54 µM and a GI50 (SK-MEL-2 melanoma) of 2.07 µM. For the same compound, the TGI (SK-MEL-2 melanoma) was 3.51 µM, the GI50 (SK-MEL-28 melanoma) was 2.16 µM and the TGI (SK-MEL-28 melanoma) was 3.62 µM. For the same compound, the GI50 (SK-MEL-5 melanoma) was 1.64 µM, the TGI (SK-MEL-5 melanoma) was 3.02 µM and the GI50 (SK-OV-3 ovarian) was 1.94 µM. The TGI (SK-OV-3 ovarian) was 3.38 µM, the GI50 (SN12C renal) was 1.64 µM and the TGI (SN12C renal) was 3.01 µM. It also gave a GI50 (SNB-19 CNS) of 2.21 µM, a TGI (SNB-19 CNS) of 3.69 µM and a GI50 (SNB-75 CNS) of 2.35 µM. For the same compound, the TGI (SNB-75 CNS) was 3.82 µM, the GI50 (SW-620 colon) was 1.84 µM and the TGI (SW-620 colon) was 3.27 µM. For the same compound, the GI50 (TK-10 renal) was 1.99 µM, the TGI (TK-10 renal) was 3.41 µM and the GI50 (U251 glioblastoma) was 2.22 µM. The TGI (U251 glioblastoma) was 3.7 µM, the GI50 (UACC-257 melanoma) was 2.84 µM and the TGI (UACC-257 melanoma) was 4.32 µM. The GI50 (UACC-62 melanoma) was 2.1 µM and the TGI (UACC-62 melanoma) was 3.56 µM.
